Test results: article PMC6522510 (Nature Communications, 2019)
Where a name gives a salt, the structure may show the parent alone.

Assays:
Assay in all cases: cells
Set-up in all cases: species or system AML cell lines (8); Secondary HTS, 10-point dose-response in triplicate, Cell Titer Glo viability, four-parameter fit EC50
MOLM-13 = settings: Homo sapiens, MOLM-13, 72 h, read-out: MOLM-13
CMK = settings: Homo sapiens, CMK, 72 h, read-out: CMK
ML-2 = settings: Homo sapiens, ML-2, 72 h, read-out: ML-2
CMS = settings: 72 h, read-out: CMS
U937 = settings: Homo sapiens, U-937, 72 h, read-out: U937
MV4-11 = settings: Homo sapiens, MV4-11, 72 h, read-out: MV4-11
M07e = settings: M-07e, 72 h, read-out: M07e
CHRF288-11 = settings: 72 h, read-out: CHRF288-11

Measured: EC50

COc1ccc2c(c1OC)C(=O)O[C@@H]2[C@H]1c2c(cc3c(c2OC)OCO3)CCN1C [NOSCAPINE HYDROCHLORIDE]
> 10 µM: all assays above

CO[C@@H]1[C@@H](OC(N)=O)[C@@H](O)[C@H](Oc2ccc3c(O)c(NC(=O)c4ccc(O)c(CC=C(C)C)c4)c(=O)oc3c2C)OC1(C)C [NOVOBIOCIN SODIUM]
> 10 µM: all assays above

CCN1CCN(c2ccc(Nc3cc(N(C)C(=O)Nc4c(Cl)c(OC)cc(OC)c4Cl)ncn3)cc2)CC1 [NVP-BGJ398]
> 10 µM: all assays above

Cc1[nH]c(/C=C2\C(=O)Nc3ccccc32)c(C)c1CCC(=O)O [ORANTINIB]
> 10 µM: all assays above

Cc1ccc(Nc2nccc(N(C)c3ccc4c(C)n(C)nc4c3)n2)cc1S(N)(=O)=O [PAZOPANIB]
> 10 µM: all assays above

OC[C@H]1O[C@@H](n2cnc3c2NC=NC[C@H]3O)C[C@@H]1O [PENTOSTATIN]
> 10 µM: all assays above

CCCCCCCCCCCCCCCCCCOP(=O)([O-])OC1CC[N+](C)(C)CC1 [PERIFOSINE]
> 10 µM: all assays above

CCCC(=O)OCOC(=O)C(C)(C)C [PIVANEX]
> 10 µM: all assays above

CC(C)(C(=O)NCC(F)(F)C(F)(F)F)C(=O)N[C@@H]1C(=O)Nc2ccccc2-c2ccccc21 [RO-4929097]
> 10 µM: all assays above

CC(C)c1nc(N(C)S(C)(=O)=O)nc(-c2ccc(F)cc2)c1/C=C/[C@@H](O)C[C@@H](O)CC(=O)O [ROSUVASTATIN]
> 10 µM: all assays above

CNCc1ccc(-c2[nH]c3cc(F)cc4c3c2CCNC4=O)cc1 [RUCAPARIB]
> 10 µM: all assays above

CC(C)=CCC/C(C)=C/CC/C(C)=C/CSc1ccccc1C(=O)O [SALIRASIB]
> 10 µM: all assays above

CCn1c(=O)c(-c2cc[nH]n2)cc2c(C)nc(N)nc21 [SAR245409]
> 10 µM: all assays above
